Assay results: publication PMC7179450, “Primary Human Hepatocytes, But not HepG2 or Balb/c 3T3 Cells, Efficiently Metabolize Salinomycin and Are Resistant to Its Cytotoxicity” (Molecules, 2020)
Where two headings read alike, the source gives them in different places.

Experiments:
[1] = system: primary human hepatocytes (PHH); assay: Biotransformation of SAL and metabolites in medium of PHH (LC-MS/MS); format: in vitro ADME
Experimental: (§1) Cryopreserved PHH were purchased from the Primacyt GmbH (Schwerin, Germany). Two different lots were chosen based on CYP activity. The donor was a person. The post-thaw viability was 94.6% for lot HH160531 (used in two repetitions) and 85.0% for lot HH130805. The initial cell viability was determined with the trypan blue exclusion test. The cells were thawed and purified using the Plating and Thawing Kit (Primacyt GmbH). Purified hepatocytes were resuspended in Hepatocyte Plating Medium (Primacyt GmbH) and seeded on collagen-coated 96-well plates at a density of 9 × 10^5 cell/mL and incubated at 37 °C with 5% CO2. After 6 h of incubation, the medium was removed and the cells were washed with PBS. […]
The medium samples from microplate wells were collected for identifying SAL metabolites and normalized to a cell number. An aliquot of 200 µL of each sample was measured to Eppendorf tube. […] The dry residue was reconstituted in 50% acetonitrile and analyzed with LC-MS/MS. […]
SAL (m/z 773.4 to m/z 431.3) was monitored in multiple reaction monitoring (MRM) modes. […]
The signals for further analysis were selected with the LightSight 2.3 software. […] These MRM transitions (with 20 chromatographic peaks) were then quantified with Multiquant 2.1. software. Quantitative analysis was performed for SAL. […]

[2] = system: HepG2 cells; assay: NRU assay in HepG2; format: cell-based, human; settings: for EC50: Homo sapiens, read-out: EC50 (effective concentration)
Experimental: The HepG2 cell line was purchased from the American Type Culture Collection (ATCC® HB-8065™). The cells were cultured in Minimum Essential Medium Eagle (MEME) (Sigma–Aldrich Co. (St. Louis, MO, USA)). Normal murine embryonic fibroblasts, Balb/c 3T3 clone A31 cell line (gift from Department of Swine Diseases of the National Veterinary Research Institute in Pulawy) was cultured in Dulbecco’s Modified Eagle’s Medium (DMEM) (Invitrogen Corporations (Paisley, UK)). The media were supplemented with 10% BCS (Balb/c 3T3), 10% FBS (HepG2), 1% L-glutamine, and 1% antibiotic solution. The cells were maintained in 75 cm^2 cell culture flasks in humidified incubator at 37 °C, in an atmosphere of 5% CO2. The medium was refreshed every two or three days and the cells were trypsinized by 0.25% trypsin–0.02% EDTA after reaching 70–80% confluence. The initial cell viability was determined with the trypan blue exclusion test. Single cell suspensions were prepared and adjusted to a density of 2 × 10^5 cell/mL (HepG2) and 1 × 10^5 cell/mL (Balb/c 3T3). The cell suspension was transferred to 96-well plates (100 µL/well) and incubated for 24 h before exposure to the studied drugs.
The concentration ranges of the drugs were chosen according to their solubility and their plasma level. Each drug was dissolved in DMSO. The final concentration of DMSO was 0.1% or 0.2% in the medium for both samples and corresponding controls. […] All drug solutions in medium were freshly prepared and protected from light. SAL was tested in seven concentrations from 0.39 to 25 µg/mL. […] The cytotoxicity was assessed after 24 and 48 h of exposure of cell lines or after 12 and 24 h exposure of PHH. […]
The assay, based on staining of living cells by neutral red (NR), was performed according to the protocol described by Borenfreund and Puerner. […] After 10 min of shaking, the absorbance of the dissolved NR was measured at 540 nm using a blank as a reference. Cytotoxicity was expressed as a percentage of the negative control (0.1% or 0.2% DMSO).

[3] = system: primary human hepatocytes (PHH); assay: LDH leakage assay in primary human hepatocytes; format: cell-based; settings: Hepatocyte, mean ± SEM, n = 3, read-out: EC50 (effective concentration)
Experimental: as §1, with “PBS. Then Human Hepatocyte Maintenance Medium (HHMM) (Primacyt GmbH) with the studied drugs was added to hepatocytes (100 µL/well).” for “PBS.”
The concentration ranges of the drugs were chosen according to their solubility and their plasma level. […] The cytotoxicity was assessed after 24 and 48 h of exposure of cell lines or after 12 and 24 h exposure of PHH. […]
The integrity of the plasma membrane was assessed through the test of lactate dehydrogenase (LDH) release, which was monitored using a commercially available Cytotoxicity Detection Kit (LDH) (Roche Diagnostics, Basel, Switzerland). […] The absorbance was measured at 492 nm in a microplate reader using a blank as a reference.

SMILES: CC[C@@H](C(=O)[C@@H](C)[C@@H](O)[C@H](C)[C@@H]1O[C@@H]([C@@H](CC)C(=O)O)CC[C@@H]1C)[C@H]1O[C@]2(C=C[C@@H](O)[C@]3(CC[C@@](C)([C@H]4CC[C@](O)(CC)[C@H](C)O4)O3)O2)[C@H](C)C[C@@H]1C [SAL, salinomycin]
- SAL metabolised, share of the dose ([1]; PHH): up to 90%
- maximum percentage of bio-transformed SAL ([1]; PHH co-exposed with tiamulin): 25%
- lowest concentration with significant effect on lysosomal activity ([2]; HepG2, 24 h, SAL alone or in both drug combinations (Figure S2)): 0.39 µg/mL
- EC50 ([2]; HepG2, 24 h): 0.6 ± 0.2 µg/mL
- EC50 ([2]; HepG2, 48 h): < 0.39 µg/mL
- EC50 ([3]; 12 h exposure): 12.9 ± 3.2 µg/mL
- EC50 ([3]; 24 h exposure): 11.3 ± 0.7 µg/mL
